Results taken from ChEMBL document CHEMBL1201861, “Genomics of Drug Sensitity in Cancer screening data, Wellcome Trust Sanger Institute”.

Tests used:
Experiment in all cases: cells
[1] = system: RCM-1; type: functional, cell-based, Homo sapiens; conditions: Homo sapiens, RCM-1;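 note: growth inhibition of the RCM-1 line, determined with a cell viability readout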
Description: SANGER: Inhibition of human RCM-1 cell growth in a cell viability assay.

[2] = system: SJSA-1; type: functional, cell-based, Homo sapiens; conditions: Homo sapiens, SJSA-1;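 note: growth inhibition of human SJSA-1 cells, read out through a cell viability measurement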
Description: SANGER: Inhibition of human SJSA-1 cell growth in a cell viability assay.

[3] = system: SW-620; type: functional, cell-based, Homo sapiens; conditions: Homo sapiens, SW-620;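 note: growth inhibition of human SW-620 cells, measured by a cell viability assay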
Description: SANGER: Inhibition of human SW620 cell growth in a cell viability assay.

[4] = system: SH-4; type: functional, cell-based, Homo sapiens; conditions: Homo sapiens, SH-4;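 note: growth inhibition of SH-4 cells, read out with a cell viability assay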
Description: SANGER: Inhibition of human SH-4 cell growth in a cell viability assay.

[5] = system: SW 962; type: functional, cell-based, Homo sapiens; conditions: Homo sapiens, SW 962;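 note: growth inhibition of human SW962 cells, read out by a cell viability assay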
Description: SANGER: Inhibition of human SW962 cell growth in a cell viability assay.

[6] = system: EKVX; type: functional, cell-based, Homo sapiens; conditions: Homo sapiens, EKVX;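 note: growth inhibition of human EKVX cells, read out with a cell viability assay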
Description: SANGER: Inhibition of human EKVX cell growth in a cell viability assay.

[7] = system: NCI-H1792; type: functional, cell-based, Homo sapiens; conditions: Homo sapiens, NCI-H1792;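 note: growth inhibition of human NCI-H1792 cells, read out as cell viability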
Description: SANGER: Inhibition of human NCI-H1792 cell growth in a cell viability assay.

[8] = system: MZ1-PC; type: functional, cell-based, Homo sapiens; conditions: Homo sapiens, MZ1-PC;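 note: cell viability assay measuring growth inhibition of human MZ1-PC cells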
Description: SANGER: Inhibition of human MZ1-PC cell growth in a cell viability assay.

[9] = system: MZ2-MEL; type: functional, cell-based, Homo sapiens; conditions: Homo sapiens, MZ2-MEL;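 note: growth inhibition of MZ2-MEL cells read out with a cell viability assay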
Description: SANGER: Inhibition of human MZ2-MEL cell growth in a cell viability assay.

[10] = system: A-431; type: functional, cell-based, Homo sapiens; conditions: Homo sapiens, A-431;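 note: growth inhibition of A-431 cells, determined with a cell viability read-out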
Description: SANGER: Inhibition of human A431 cell growth in a cell viability assay.

[11] = system: ATN-1; type: functional, cell-based; conditions: Homo sapiens;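 note: growth inhibition of human ATN-1 cells, read out with a cell viability assay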
Description: SANGER: Inhibition of human ATN-1 cell growth in a cell viability assay.

[12] = system: SW626; type: functional, cell-based, Homo sapiens; conditions: Homo sapiens, SW626;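 note: growth inhibition of SW626 cells, measured with a cell viability assay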
Description: SANGER: Inhibition of human SW626 cell growth in a cell viability assay.

[13] = system: OVCAR-4; type: functional, cell-based, Homo sapiens; conditions: Homo sapiens, OVCAR-4;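 note: growth inhibition of human OVCAR-4 cells, measured with a cell viability assay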
Description: SANGER: Inhibition of human OVCAR-4 cell growth in a cell viability assay.

[14] = system: COR-L105; type: functional, cell-based, Homo sapiens; conditions: Homo sapiens, COR-L105;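 note: cell growth inhibition determined with a viability assay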
Description: SANGER: Inhibition of human COR-L105 cell growth in a cell viability assay.

[15] = system: KLE; type: functional, cell-based, Homo sapiens; conditions: Homo sapiens, KLE;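 note: growth inhibition of human KLE cells, read out with a cell viability assay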
Description: SANGER: Inhibition of human KLE cell growth in a cell viability assay.

[16] = system: Huh-7; type: functional, cell-based, Homo sapiens; conditions: Homo sapiens, Huh-7;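 note: HuH-7 cell growth inhibition, read out with a cell viability assay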
Description: SANGER: Inhibition of human HuH-7 cell growth in a cell viability assay.

[17] = system: SCH; type: functional, cell-based, Homo sapiens; conditions: Homo sapiens, SCH;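 note: growth inhibition of human SCH cells, read out in a cell viability assay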
Description: SANGER: Inhibition of human SCH cell growth in a cell viability assay.

[18] = system: TE-12; type: functional, cell-based; conditions: Homo sapiens;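 note: growth inhibition of TE-12 cells, read out by a cell viability assay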
Description: SANGER: Inhibition of human TE-12 cell growth in a cell viability assay.

[19] = system: AGS; type: functional, cell-based, Homo sapiens; conditions: Homo sapiens, AGS;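 note: growth inhibition of AGS cells, determined with a cell viability assay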
Description: SANGER: Inhibition of human AGS cell growth in a cell viability assay.

[20] = system: SK-MEL-28; type: functional, cell-based; conditions: Homo sapiens;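 note: growth inhibition of human SK-MEL-28 cells, read out with a cell viability assay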
Description: SANGER: Inhibition of human SK-MEL-28 cell growth in a cell viability assay.

[21] = system: SW756; type: functional, cell-based, Homo sapiens; conditions: Homo sapiens, SW756;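 note: growth inhibition of human SW756 cells, read out with a cell viability assay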
Description: SANGER: Inhibition of human SW756 cell growth in a cell viability assay.

[22] = system: DU-4475; type: functional, cell-based; conditions: Homo sapiens
Description: SANGER: Inhibition of human DU-4475 cell growth in a cell viability assay.

[23] = system: SW13; type: functional, cell-based, Homo sapiens; conditions: Homo sapiens, SW13;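 note: IC50 is inhibition of SW13 cell growth, read out with a cell viability assay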
Description: SANGER: Inhibition of human SW13 cell growth in a cell viability assay.

[24] = system: C-33-A; type: functional, cell-based, Homo sapiens; conditions: Homo sapiens, C-33-A;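 note: cell viability assay measuring growth inhibition of C-33-A cells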
Description: SANGER: Inhibition of human C-33-A cell growth in a cell viability assay.

[25] = system: J-RT3-T3-5; type: functional, cell-based; conditions: Homo sapiens;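 note: cell viability assay measuring growth inhibition of human J-RT3-T3-5 cells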
Description: SANGER: Inhibition of human J-RT3-T3-5 cell growth in a cell viability assay.

[26] = system: RS4-11; type: functional, cell-based; conditions: Homo sapiens;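 note: growth inhibition of RS4-11 cells, read out by a cell viability assay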
Description: SANGER: Inhibition of human RS4-11 cell growth in a cell viability assay.

[27] = system: SK-UT-1; type: functional, cell-based, Homo sapiens; conditions: Homo sapiens, SK-UT-1;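 note: growth inhibition of SK-UT-1 cells, measured by a cell viability assay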
Description: SANGER: Inhibition of human SK-UT-1 cell growth in a cell viability assay.

[28] = system: KYSE-520 cell line; type: functional, cell-based, Homo sapiens; conditions: Homo sapiens, KYSE-520;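 note: growth inhibition of human KYSE-520 cells, read out with a viability assay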
Description: SANGER: Inhibition of human KYSE-520 cell growth in a cell viability assay.

[29] = system: COLO-320-HSR; type: functional, cell-based; conditions: Homo sapiens;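 note: growth inhibition of COLO-320-HSR cells, determined with a cell viability assay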
Description: SANGER: Inhibition of human COLO-320-HSR cell growth in a cell viability assay.

[30] = system: NCI-H2228; type: functional, cell-based, Homo sapiens; conditions: Homo sapiens, NCI-H2228;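 note: growth inhibition of human NCI-H2228 cells, read out by a cell viability assay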
Description: SANGER: Inhibition of human NCI-H2228 cell growth in a cell viability assay.

[31] = system: KYSE-150 cell line; type: functional, cell-based, Homo sapiens; conditions: Homo sapiens, KYSE-150;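 note: growth inhibition of human KYSE-150 cells, read out with a cell viability assay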
Description: SANGER: Inhibition of human KYSE-150 cell growth in a cell viability assay.

[32] = system: GCT; type: functional, cell-based, Homo sapiens; conditions: Homo sapiens, GCT;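 note: GCT cell line proliferation inhibition, read out with a cell viability assay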
Description: SANGER: Inhibition of human GCT cell growth in a cell viability assay.

[33] = system: LC-2-ad; type: functional, cell-based, Homo sapiens; conditions: Homo sapiens, LC-2-ad;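 note: growth inhibition of human LC-2-ad cells, read out with a cell viability assay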
Description: SANGER: Inhibition of human LC-2-ad cell growth in a cell viability assay.

[34] = system: MKN-28; type: functional, cell-based, Homo sapiens; conditions: Homo sapiens, MKN-28;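 note: cell viability assay read-out, IC50 reflects suppression of growth of human MKN-28 cells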
Description: SANGER: Inhibition of human MKN28 cell growth in a cell viability assay.

[35] = system: LU-139; type: functional, cell-based; conditions: Homo sapiens
Description: SANGER: Inhibition of human LU-139 cell growth in a cell viability assay.

[36] = system: CAL-12T; type: functional, cell-based, Homo sapiens; conditions: Homo sapiens, CAL-12T;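 note: growth inhibition of human CAL-12T cells, read out with a cell viability assay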
Description: SANGER: Inhibition of human CAL-12T cell growth in a cell viability assay.

[37] = system: ABC-1; type: functional, cell-based, Homo sapiens; conditions: Homo sapiens, ABC-1;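 note: growth inhibition of human ABC-1 cells, read out by a cell viability assay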
Description: SANGER: Inhibition of human ABC-1 cell growth in a cell viability assay.

[38] = system: RPMI-2650; type: functional, cell-based, Homo sapiens; conditions: Homo sapiens, RPMI-2650
Description: SANGER: Inhibition of human RPMI-2650 cell growth in a cell viability assay.

[39] = system: MEG-01; type: functional, cell-based; conditions: Homo sapiens;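 note: growth inhibition of MEG-01 cells, read out by a cell viability assay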
Description: SANGER: Inhibition of human MEG-01 cell growth in a cell viability assay.

[40] = system: SF-126; type: functional, cell-based, Homo sapiens; conditions: Homo sapiens, SF-126;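 note: growth inhibition of human SF126 cells, read out with a cell viability assay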
Description: SANGER: Inhibition of human SF126 cell growth in a cell viability assay.

[41] = system: KARPAS-45; type: functional, cell-based; conditions: Homo sapiens;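 note: inhibition of cell line growth, read out through a viability assay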
Description: SANGER: Inhibition of human KARPAS-45 cell growth in a cell viability assay.

[42] = system: SHP77; type: functional, cell-based, Homo sapiens, SHP-77; conditions: Homo sapiens, SHP77;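 note: growth inhibition of human SHP-77 cells measured by a cell viability assay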
Description: SANGER: Inhibition of human SHP-77 cell growth in a cell viability assay.

[43] = system: HPAF-II; type: functional, cell-based, Homo sapiens; conditions: Homo sapiens, HPAF-II;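 note: growth inhibition of HPAF-II cells, read out with a cell viability assay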
Description: SANGER: Inhibition of human HPAF-II cell growth in a cell viability assay.

[44] = system: GR-ST; type: functional, cell-based; conditions: Homo sapiens
Description: SANGER: Inhibition of human GR-ST cell growth in a cell viability assay.

[45] = system: ES7; type: functional, cell-based, Homo sapiens; conditions: Homo sapiens, ES7;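 note: growth inhibition of cultured human ES7 cells, read out as cell viability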
Description: SANGER: Inhibition of human ES7 cell growth in a cell viability assay.

[46] = system: EW-13; type: functional, cell-based; conditions: Homo sapiens;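 note: growth inhibition of EW-13 cells, read out with a cell viability assay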
Description: SANGER: Inhibition of human EW-13 cell growth in a cell viability assay.

[47] = system: HLE; type: functional, cell-based, Homo sapiens; conditions: Homo sapiens, HLE;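 note: growth inhibition of human HLE cells, read out by a cell viability assay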
Description: SANGER: Inhibition of human HLE cell growth in a cell viability assay.

[48] = system: HT; type: functional, cell-based; conditions: Homo sapiens
Description: SANGER: Inhibition of human HT cell growth in a cell viability assay.

[49] = system: NCI-H1581; type: functional, cell-based, Homo sapiens; conditions: Homo sapiens, NCI-H1581;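 note: cell growth inhibition read out by a viability assay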
Description: SANGER: Inhibition of human NCI-H1581 cell growth in a cell viability assay.

[50] = system: D-392MG; type: functional, cell-based, Homo sapiens; conditions: Homo sapiens, D-392MG
[51] = system: KNS-42; type: functional, cell-based, Homo sapiens; conditions: Homo sapiens, KNS-42;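 note: growth inhibition of KNS-42 cells, read out with a cell viability assay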
Description: SANGER: Inhibition of human KNS-42 cell growth in a cell viability assay.

SMILES: CC(=O)O[C@@H]1[C@@H](OC(C)=O)[C@@H](O)[C@H](Oc2c(-c3ccc(O)cc3)oc3cc(O)cc(O)c3c2=O)O[C@H]1C
- IC50 [1]: > 10 µM
- IC50 [2]: > 10 µM
- IC50 [3]: > 10 µM
- IC50 [4]: > 10 µM
- IC50 [5]: > 10 µM
- IC50 [6]: > 10 µM
- IC50 [7]: > 10 µM
- IC50 [8]: > 10 µM
- IC50 [9]: > 10 µM
- IC50 [10]: > 10 µM
- IC50 [11]: > 10 µM
- IC50 [12]: > 10 µM
- IC50 [13]: > 10 µM
- IC50 [14]: > 10 µM
- IC50 [15]: > 10 µM
- IC50 [16]: > 10 µM
- IC50 [17]: > 10 µM
- IC50 [18]: > 10 µM
- IC50 [19]: > 10 µM
- IC50 [20]: > 10 µM
- IC50 [21]: > 10 µM
- IC50 [22]: 7.65 µM
- IC50 [23]: > 10 µM
- IC50 [24]: > 10 µM
- IC50 [25]: > 10 µM
- IC50 [26]: > 10 µM
- IC50 [27]: > 10 µM
- IC50 [28]: > 10 µM
- IC50 [29]: > 10 µM
- IC50 [30]: > 10 µM
- IC50 [31]: > 10 µM
- IC50 [32]: > 10 µM
- IC50 [33]: > 10 µM
- IC50 [34]: > 10 µM
- IC50 [35]: > 10 µM
- IC50 [36]: > 10 µM
- IC50 [37]: > 10 µM
- IC50 [38]: > 10 µM
- IC50 [39]: > 10 µM
- IC50 [40]: > 10 µM
- IC50 [41]: > 10 µM
- IC50 [42]: > 10 µM
- IC50 [43]: > 10 µM
- IC50 [44]: > 10 µM
- IC50 [45]: > 10 µM
- IC50 [46]: > 10 µM
- IC50 [47]: > 10 µM
- IC50 [48]: > 10 µM
- IC50 [49]: > 10 µM
- IC50 [50]: > 10 µM
- IC50 [51]: > 10 µM

SMILES: C=CCNC1=C2C[C@@H](C)C[C@H](OC)[C@H](O)[C@@H](C)/C=C(\C)[C@H](OC(N)=O)[C@@H](OC)/C=C\C=C(/C)C(=O)NC(=CC1=O)C2=O [TANESPIMYCIN]
- IC50 [1]: > 1 µM
- IC50 [2]: 0.318 µM
- IC50 [3]: 0.0703 µM
- IC50 [4]: 0.114 µM
- IC50 [5]: 0.0395 µM
- IC50 [6]: > 1 µM
- IC50 [7]: 0.0962 µM
- IC50 [8]: > 1 µM
- IC50 [9]: 0.0655 µM
- IC50 [10]: 0.0821 µM
- IC50 [11]: > 1 µM
- IC50 [12]: 0.335 µM
- IC50 [13]: > 1 µM
- IC50 [14]: > 1 µM
- IC50 [15]: > 1 µM
- IC50 [16]: > 1 µM
- IC50 [17]: > 1 µM
- IC50 [18]: > 1 µM
- IC50 [19]: 0.0194 µM
- IC50 [20]: 0.113 µM
- IC50 [21]: 0.442 µM
- IC50 [22]: 0.0226 µM
- IC50 [23]: > 1 µM
- IC50 [24]: > 1 µM
- IC50 [25]: > 1 µM
- IC50 [26]: > 1 µM
- IC50 [27]: 0.0318 µM
- IC50 [28]: 0.182 µM
- IC50 [29]: > 1 µM
- IC50 [30]: 0.354 µM
- IC50 [31]: 0.0524 µM
- IC50 [32]: > 1 µM
- IC50 [33]: 0.141 µM
- IC50 [34]: 0.666 µM
- IC50 [35]: > 1 µM
- IC50 [36]: 0.428 µM
- IC50 [37]: > 1 µM
- IC50 [38]: > 1 µM
- IC50 [39]: > 1 µM
- IC50 [40]: > 1 µM
- IC50 [41]: 0.379 µM
- IC50 [42]: 0.905 µM
- IC50 [43]: 0.213 µM
- IC50 [44]: > 1 µM
- IC50 [45]: > 1 µM
- IC50 [46]: > 1 µM
- IC50 [47]: > 1 µM
- IC50 [48]: > 1 µM
- IC50 [49]: 0.103 µM
- IC50 [50]: 0.894 µM
- IC50 [51]: > 1 µM
